# Test results reported in patent EP3355943B1, “METHODS AND SYSTEMS FOR TREATING MEDICAL DEVICES AND FLUIDS” (Ethicon, Inc., priority 2015, dated 2017).
# “And” between values parts separate entries of the source, which are not always exact repeats. Equal entries are not always repeated.
# Tests used:
# Type in all cases: biochemical
# [1] = Detection of LPS after adding CaSt powder to water spiked with LPS (Kinetic Chromogenic Method for Endotoxin Quantitation)
# Method: Water and aqueous solutions (containing LPS with various sources of endotoxin) were exposed to calcium stearate [CaSt] […] 5 mL of water solution of known endotoxin concentration (generated by spiking endotoxin-free water with water solution of known endotoxin concentration) was added to the each test tube, vortexed vigorously (1 minute) using Fisher Scientific Digital Vortex Mixer, and then placed in a warm water bath (37°C) for 1 hour. After 1 hour, the tubes were removed from warm water bath and vortexed vigorously (1 minute). Sterile syringes with needles were used to extract the solution without removing the calcium stearate. This solution was then tested for endotoxin levels. Kinetic Chromogenic Method for Endotoxin Quantitation, using Endosafe MCS Multi Cartridge System by Charles River Laboratories, Charleston S.C.
# [2] = Suture testing in ethanol, cyclohexane, isopropanol with 1% calcium stearate; settings: for Change in Endotoxin Level (%): vs. Suture-1 not submerged (68.1 EU)
# Method: Similarly to the testing above, an absorbable suture of the same type, similarly contaminated, was exposed to CaSt in three solvents (ethanol, cyclohexane, isopropanol). The suture was then tested for LPS.
# Sutures used were 27 inch long pieces of absorbable lactide-glycolide sutures. […] 7 strands of suture were placed in tubing with endotoxin solution for 10 minutes at a time. The sutures were dried for 20 minutes and then placed in round bottom tubes. […] 1 suture was placed in each tube and vortexed in this solution for approximately 10 seconds. The sutures were removed and allowed to dry for 20 minutes and then placed in round bottom tubes. This was done for 6 sutures. 1 piece of suture, serving as the control, was not submerged in any solutions and placed in test tubes. 3 mL of LAL reagent water was added to each test tube, vortexed vigorously, and then placed in a hot water bath at 37°C for 1 hour. They were then removed, vortexed vigorously, diluted, and tested on the MCS system. […] Results of testing in ethanol, cyclohexane, isopropanol
# [3] = Endotoxin removal by sonicated CaSt suspension stored 1 month; settings: listed as CaSt suspension; for Percent Endotoxin Removal(15 min/30 min): sonicated suspension stored 1 month
# Method: 10 ml of LRW water (LAL reagent water, contains no endotoxin) containing 0.04 g of CaSt suspension was sonicated using Misonix Probe Sonicator, Model: S-4000, Amplitude: 30, Time: 30 seconds and then the suspension was stored for 1 month at ambient temperature. Then 1 ml of the above suspension was added to 10 ml endotoxin containing water SRW and the resulting endotoxin concentrations in the combined solution measured after 15 min and 30 min, with the results presented in Table 14.
# [4] = 0.0027 g CaSt in 5 ml water, 14,400 EU spiked
# [5] = 0.0108 g CaSt in 5 ml water, 14,400 EU spiked
# [6] = 0.0518 g CaSt in 5 ml water, 14,400 EU spiked
# [7] = 0.2502 g CaSt in 5 ml water, 14,400 EU spiked
# [8] = CaSt powder 0.254 g (sample 1), 0.2607 g (sample 2) in 5 ml water, 14,400 EU spiked, 0.254 g CaSt powder added
# [9] = CaSt powder 0.254 g (sample 1), 0.2607 g (sample 2) in 5 ml water, 14,400 EU spiked, 0.2607 g CaSt powder added
# [10] = suture submerged in Cyclohexane w/1% Calcium Stearate (0.0858 g)
# [11] = suture submerged in Ethanol w/1% Calcium Stearate (0.0827 g)
# [12] = suture submerged in Isopropanol w/1% Calcium Stearate (0.0841 g)
smiles,measurement,setting,value
CCCCCCCCCCCCCCCCCC(=O)O [Calcium Stearate],Endotoxin Detected (EU),[1]; [4],"11,055 EU"
same,Percent of detected Endotoxin vs. initial concentration,[1]; [4],77% and 76.77%
same,Endotoxin Detected (EU),[1]; [5],"2,925 EU"
same,Percent of detected Endotoxin vs. initial concentration,[1]; [5],20% and 20.31%
same,Endotoxin Detected (EU),[1]; [6],9.4 EU
same,Percent of detected Endotoxin vs. initial concentration,[1]; [6],0.07%
same,Endotoxin Detected (EU),[1]; [7],26.7 EU
same,Percent of detected Endotoxin vs. initial concentration,[1]; [7],0.19%
same,Percent of detected Endotoxin vs. initial concentration,"[1]; CaSt powder 0.252/0.258/0.272/0.267 g (samples 1-4) in 5 ml water, 5.208 EU spiked, 37°C 1 hour, 0.252 g CaSt powder added",<2.88%
same,Percent of detected Endotoxin vs. initial concentration,"[1]; CaSt powder 0.252/0.258/0.272/0.267 g (samples 1-4) in 5 ml water, 5.208 EU spiked, 37°C 1 hour, 0.258 g CaSt powder added",<8.06%
same,Percent of detected Endotoxin vs. initial concentration,"[1]; CaSt powder 0.252/0.258/0.272/0.267 g (samples 1-4) in 5 ml water, 5.208 EU spiked, 37°C 1 hour, 0.267 g CaSt powder added",<3.46%
same,Endotoxin Detected (EU),[1]; [8],12.1 EU
same,Percent of detected Endotoxin vs. initial concentration,[1]; [8],0.08%
same,Endotoxin Detected (EU),[1]; [9],10.3 EU
same,Percent of detected Endotoxin vs. initial concentration,[1]; [9],0.07%
same,LPS activity decreased by,"[2]; CaSt 1% suspension in ethanol, cyclohexane, isopropanol",75-95%
same,Endotoxin Detected (EU),[2]; [10],4.02 EU
same,Change in Endotoxin Level (%),[2]; [10],-94.1%
same,Endotoxin Detected (EU),[2]; [11],15.06 EU
same,Change in Endotoxin Level (%),[2]; [11],-77.9%
same,Endotoxin Detected (EU),[2]; [12],16.59 EU
same,Change in Endotoxin Level (%),[2]; [12],-75.6%
same,Endotoxin EU/mL (15 min after addition of CaSt suspension),"[3]; 0.04 g CaSt in 10 ml LRW sonicated, stored 1 month, added to SRW, initial 732.5 EU/mL, 15 min",372 EU/mL and 362 EU/mL
same,Endotoxin EU/mL (30 min after addition of CaSt suspension),"[3]; 0.04 g CaSt in 10 ml LRW sonicated, stored 1 month, added to SRW, initial 732.5 EU/mL, 30 min",384 EU/mL and 278 EU/mL
same,Percent Endotoxin Removal(15 min/30 min),[3]; 15 min,49.2% and 50.6%
same,Percent Endotoxin Removal(15 min/30 min),[3]; 30 min,47.6% and 62.0%
